The target in data set [1] is CYP3A4 (Homo sapiens, UniProt P08684). The conditions noted are these: in vitro; cited from earlier work.
Data set [2] has as its system CYP1A2. The conditions noted are these: cited from earlier work.
For data set [3] the following is noted: healthy male subjects, plasma; for AUC(0-inf) / AUC(0-t) / half-life / Tmax: male, human, in vivo; for AUC(0-inf): AUCinf; for AUC(0-inf) / AUC(0-t): geometric mean; for AUC(0-t): AUClast; for half-life: t 1/2, geometric mean; for Tmax: t max (median).
Data set [4] has as its system CYP enzyme. Conditions: in vitro studies; cited from earlier work.
For data set [5], the target named is CYP2C9 (Homo sapiens, UniProt P11712). The conditions noted are these: in vitro; cited from earlier work.
CYP2C9, sequence (P11712 whole entry): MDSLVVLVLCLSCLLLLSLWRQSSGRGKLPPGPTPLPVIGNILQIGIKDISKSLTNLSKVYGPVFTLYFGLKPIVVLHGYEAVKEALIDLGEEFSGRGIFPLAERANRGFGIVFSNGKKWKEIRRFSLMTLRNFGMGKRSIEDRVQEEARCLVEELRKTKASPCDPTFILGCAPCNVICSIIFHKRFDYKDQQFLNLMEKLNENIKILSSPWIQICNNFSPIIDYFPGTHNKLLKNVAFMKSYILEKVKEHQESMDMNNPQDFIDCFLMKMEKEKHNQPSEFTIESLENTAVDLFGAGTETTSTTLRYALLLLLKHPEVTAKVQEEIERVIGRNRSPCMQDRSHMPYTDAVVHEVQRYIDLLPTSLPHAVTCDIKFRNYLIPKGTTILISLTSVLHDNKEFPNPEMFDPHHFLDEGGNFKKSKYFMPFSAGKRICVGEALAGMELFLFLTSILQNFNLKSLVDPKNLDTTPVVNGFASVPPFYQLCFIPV
[6] abbreviates: After FRG, after 2 weeks of fermented red ginseng.
Setting [7] is: Before FRG, before fermented red ginseng.

Where two headings read alike, the source gives them in different places.

CYP3A4, sequence (P08684 whole entry): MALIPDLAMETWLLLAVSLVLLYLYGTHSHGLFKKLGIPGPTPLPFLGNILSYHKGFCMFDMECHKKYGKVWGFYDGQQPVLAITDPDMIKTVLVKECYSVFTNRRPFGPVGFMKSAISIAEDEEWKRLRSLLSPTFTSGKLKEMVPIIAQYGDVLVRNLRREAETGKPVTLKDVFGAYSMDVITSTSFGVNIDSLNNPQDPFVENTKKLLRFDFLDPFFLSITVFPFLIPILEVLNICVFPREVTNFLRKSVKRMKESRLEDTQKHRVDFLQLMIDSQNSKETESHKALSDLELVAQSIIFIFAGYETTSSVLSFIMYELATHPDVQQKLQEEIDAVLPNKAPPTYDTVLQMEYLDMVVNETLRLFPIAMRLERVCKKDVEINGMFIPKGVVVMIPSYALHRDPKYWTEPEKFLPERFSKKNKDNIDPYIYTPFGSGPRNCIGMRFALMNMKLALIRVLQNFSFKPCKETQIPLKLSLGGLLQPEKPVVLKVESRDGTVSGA

On to `CC(C)=CCCC(C)(O)[C@H]1CC[C@]2(C)[C@@H]1[C@H](O)C[C@@H]1[C@@]3(C)CC[C@H](O)C(C)(C)[C@@H]3CC[C@]12C` (stereo in doubt) [PPD, protopanaxadiol], for which the “inhibition of CYP3A4 activity” value in data set [1] is “potent inhibition”.
In general, AUC(0-inf) refers to total exposure, with the tail of the curve extrapolated. A higher AUC(0-inf) goes with high exposure. By AUC(0-t) is commonly meant exposure summed from dosing to a finite time, without extrapolation to infinity. A lower AUC(0-t) goes with low exposure. The half-life is the time needed for the level to fall by half in the phase considered. Read a low half-life as fast loss. Usually Tmax stands for the time from dosing to the highest level. On to `Cn1c(=O)c2c(ncn2C)n(C)c1=O` [Caffeine, caffeine], for which the “fraction metabolized to paraxanthine by CYP1A2” value in data set [2] is listed as “over 95%”. Besides, in data set [3], the “AUCinf, geometric mean ratio, After FRG: Before FRG (90% CI)” value (“AUCinf, geometric mean ratio … (90% CI)” for short) was 1.165 (1.002–1.356); the “AUClast, geometric mean ratio, After FRG: Before FRG (90% CI)” value (“AUClast, geometric mean ratio … (90% CI)” below) was 1.128 (0.997–1.277); the “C max, geometric mean ratio, After FRG: Before FRG (90% CI)” value (“C max, geometric mean ratio … (90% CI)” below) is listed as 1.002 (0.857–1.171). In data set [3] (setting [6]), this molecule gave an area under the curve AUC(0-inf) of 57500 ng·h/mL, an AUC(0-t) of 51300 ng·h/mL and a half-life of 6.94 h. Moreover, in data set [3] (setting [7]), the AUC(0-inf) came to 49300 ng·h/mL, the AUC(0-t) worked out at 45500 ng·h/mL, the half-life was 5.5 h and the time of peak concentration (Tmax) is 0.5 h.
As for `Cc1ncc2n1-c1ccc(Cl)cc1C(c1ccccc1F)=NC2` [Midazolam, midazolam], in data set [3], the “AUCinf, geometric mean ratio … (90% CI)” value is 1.138 (1.007–1.285); the “AUClast, geometric mean ratio … (90% CI)” value is 1.157 (1.022–1.309); the “C max, geometric mean ratio … (90% CI)” value is reported as 0.873 (0.732–1.041). In data set [3] (setting [6]), the total exposure AUC(0-inf) was determined as 126 ng·h/mL, the exposure AUC(0-t) came out at 119 ng·h/mL and the half-life was 2.96 h. In data set [3] (setting [7]), the area under the curve AUC(0-inf) was determined as 110 ng·h/mL, the AUC(0-t) stood at 103 ng·h/mL and the half-life was 3.3 h.
Consider `COc1ccc2[nH]c([S+]([O-])Cc3ncc(C)c(OC)c3C)nc2c1` (centres unmarked) [Omeprazole, omeprazole], for which, in data set [3], the “AUCinf, geometric mean ratio … (90% CI)” value is on record as 0.936 (0.819–1.069); the “AUClast, geometric mean ratio … (90% CI)” value was 0.931 (0.812–1.067); the “C max, geometric mean ratio … (90% CI)” value was 0.892 (0.747–1.066). The “t max (median), Before FRG” value in data set [3] (before fermented red ginseng) came out at 2.000 h. In data set [3] (setting [6]), this molecule had an area under the curve AUC(0-inf) of 1280 ng·h/mL, an area under the curve AUC(0-t) of 1260 ng·h/mL and a half-life of 1.22 h. In data set [3] (setting [7]), this molecule gave an area under the curve AUC(0-inf) of 1370 ng·h/mL, an exposure AUC(0-t) of 1350 ng·h/mL and a half-life of 1.19 h.
`CC(C)=CCC[C@](C)(O)[C@H]1CC[C@]2(C)[C@@H]1[C@H](O)C[C@@H]1[C@@]3(C)CC[C@H](O)C(C)(C)[C@@H]3[C@@H](O)C[C@]12C` [PPT, protopanaxatriol]: in data set [1], the “inhibition of CYP3A4 activity” value is listed as “potent inhibition”.
`Cn1c(=O)[nH]c2ncn(C)c2c1=O` [Paraxanthine, paraxanthine]: in data set [3], the “AUCinf, geometric mean ratio … (90% CI)” value is listed as 1.432 (1.125–1.823); the “AUClast, geometric mean ratio … (90% CI)” value is 1.017 (0.943–1.096); the “C max, geometric mean ratio … (90% CI)” value was 0.979 (0.906–1.057). Besides, in data set [3] (setting [6]), the AUC(0-inf) was 53900 ng·h/mL, the AUC(0-t) turned out to be 24600 ng·h/mL, the half-life was 20.7 h and the Tmax amounted to 6 h. In data set [3] (setting [7]), this molecule had an AUC(0-inf) of 37600 ng·h/mL, an AUC(0-t) of 24200 ng·h/mL and a half-life of 11.8 h.
Turning to `CC(C)=CCC[C@](C)(O[C@@H]1O[C@H](CO[C@@H]2OC[C@H](O)[C@H](O)[C@H]2O)[C@@H](O)[C@H](O)[C@H]1O)[C@H]1CC[C@]2(C)[C@@H]1[C@H](O)C[C@@H]1[C@@]3(C)CC[C@H](O[C@@H]4O[C@H](CO)[C@@H](O)[C@H](O)[C@H]4O[C@@H]4O[C@H](CO)[C@@H](O)[C@H](O)[C@H]4O)C(C)(C)[C@@H]3CC[C@]12C` [Rb2, ginsenoside Rb2], in data set [4], the “effect on CYP enzyme activity” value is listed as “do not affect”.
Turning to `CC(C)=CCC[C@](C)(O[C@@H]1O[C@H](CO[C@@H]2O[C@@H](CO)[C@H](O)[C@H]2O)[C@@H](O)[C@H](O)[C@H]1O)[C@H]1CC[C@]2(C)[C@@H]1[C@H](O)C[C@@H]1[C@@]3(C)CC[C@H](O[C@@H]4O[C@H](CO)[C@@H](O)[C@H](O)[C@H]4O[C@@H]4O[C@H](CO)[C@@H](O)[C@H](O)[C@H]4O)C(C)(C)[C@@H]3CC[C@]12C` [Rc, ginsenoside Rc], the “effect on CYP enzyme activity” value in data set [4] is “do not affect”.
Regarding `CC(C)=CCC[C@](C)(O[C@@H]1O[C@H](CO)[C@@H](O)[C@H](O)[C@H]1O)[C@H]1CC[C@]2(C)[C@@H]1[C@H](O)C[C@@H]1[C@@]3(C)CC[C@H](O)C(C)(C)[C@@H]3[C@@H](O[C@@H]3O[C@H](CO)[C@@H](O)[C@H](O)[C@H]3O)C[C@]12C` [Rg1, ginsenoside Rg1], the “effect on CYP enzyme activity” value in data set [4] is “do not affect”.
`CC(C)=CCC[C@](C)(O[C@@H]1O[C@H](CO)[C@@H](O)[C@H](O)[C@H]1O)[C@H]1CC[C@]2(C)[C@@H]1[C@H](O)C[C@@H]1[C@@]3(C)CC[C@H](O)C(C)(C)[C@@H]3CC[C@]12C` [compound K, 20‐O‐(β‐D‐glucopyranosyl)‐20(S)‐protopanaxadiol]: the “inhibition of CYP3A4 activity” value in data set [1] is given as “moderate inhibition”. Also, in data set [5], the “inhibition of CYP2C9 activity” value is reported as “moderate inhibition”.
On to `CC(C)=CCC[C@](C)(O[C@@H]1O[C@H](CO[C@@H]2O[C@H](CO)[C@@H](O)[C@H](O)[C@H]2O)[C@@H](O)[C@H](O)[C@H]1O)[C@H]1CC[C@]2(C)[C@@H]1[C@H](O)C[C@@H]1[C@@]3(C)CC[C@H](O[C@@H]4O[C@H](CO)[C@@H](O)[C@H](O)[C@H]4O[C@@H]4O[C@H](CO)[C@@H](O)[C@H](O)[C@H]4O)C(C)(C)[C@@H]3CC[C@]12C` [ginsenoside Rb1], for which the “effect on CYP enzyme activity” value in data set [4] is listed as “do not affect”.
In the case of `CC(C)=CCC[C@](C)(O)[C@H]1CC[C@]2(C)[C@@H]1[C@H](O)C[C@@H]1[C@@]3(C)CC[C@H](O[C@@H]4O[C@H](CO)[C@@H](O)[C@H](O)[C@H]4O)C(C)(C)[C@@H]3CC[C@]12C` [ginsenoside Rh2], in data set [1], the “inhibition of CYP3A4 activity” value is “moderate inhibition”. Further, in data set [5], the “inhibition of CYP2C9 activity” value is given as “moderate inhibition”.

The values above are taken from PMC5099554 (British Journal of Clinical Pharmacology, 2016).
